Measured values taken from BigSolDB 2.1.

COC(=O)N(OC)c1ccccc1COc1ccn(-c2ccc(Cl)cc2)n1
solubility (mole fraction)
Conditions | 283.15 K | 288.15 K | 293.15 K | 298.15 K | 303.15 K | 308.15 K
in cyclohexane | 0.000942 | 0.00148 | 0.00217 | 0.00311 | 0.00448 | 0.00609
in ethanol | 0.00458 | 0.00601 | 0.00866 | 0.0117 | 0.0184 | 0.0326
in isobutanol | 0.00283 | 0.00377 | 0.00527 | 0.00758 | 0.0115 | 0.0186
in isopropanol | 0.00248 | 0.00332 | 0.00481 | 0.00687 | 0.0102 | 0.0163
in n-butanol | 0.00534 | 0.00663 | 0.00916 | 0.0132 | 0.0214 | 0.0343
